{
  "source": "PubChem BioAssay (NCI)",
  "assay_in_all_cases": "NCI anticancer screen, dose series, 48 h",
  "key": {"[1]": {"tested_on": "SF-295 CNS"}, "[2]": {"tested_on": "PC-3 prostate"}, "[3]": {"tested_on": "UO-31 renal"}, "[4]": {"tested_on": "NCI-H460 lung"}, "[5]": {"tested_on": "786-0 renal"}, "[6]": {"tested_on": "T-47D breast"}, "[7]": {"tested_on": "NCI/ADR-RES ovarian"}, "[8]": {"tested_on": "SK-OV-3 ovarian"}, "[9]": {"tested_on": "TK-10 renal"}, "[10]": {"tested_on": "SNB-19 CNS"}, "[11]": {"tested_on": "HT29 colon"}, "[12]": {"tested_on": "OVCAR-5 ovarian"}, "[13]": {"tested_on": "RXF 393 renal"}, "[14]": {"tested_on": "SF-539 CNS"}, "[15]": {"tested_on": "DU-145 prostate"}, "[16]": {"tested_on": "NCI-H23 lung"}, "[17]": {"tested_on": "IGROV1 ovarian"}, "[18]": {"tested_on": "A498 renal"}, "[19]": {"tested_on": "HS 578T breast"}, "[20]": {"tested_on": "EKVX NSCLC"}, "[21]": {"tested_on": "OVCAR-3 ovarian"}, "[22]": {"tested_on": "NCI-H522 lung"}, "[23]": {"tested_on": "UACC-257 melanoma"}, "[24]": {"tested_on": "SF-268 CNS"}, "[25]": {"tested_on": "CAKI-1 renal"}, "[26]": {"tested_on": "HOP-62 NSCLC"}, "[27]": {"tested_on": "A549 NSCLC"}, "[28]": {"tested_on": "HCC-2998 colon"}, "[29]": {"tested_on": "SK-MEL-2 melanoma"}},
  "note": "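1) Cells in 96-well plates. 2) Compound, 48 h, 5 concentrations. 3) Linear interpolation between surrounding doses. 4) Unreached endpoint = highest concentration. GI50: concentration for 50% inhibition of growth. TGI denotes the concentration required for complete inhibition of growth.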",
  "data": [
    {"smiles": "COc1ccc(NC(=O)c2sc3nc(C)c(C(=O)/C=C/c4cccc(OC)c4)cc3c2N)cc1", "values": [
      {"measurement": "TGI", "setting": "[1]", "value": "> 50", "unit": "µM"},
      {"measurement": "GI50", "setting": "[2]", "value": 1560, "unit": "nM"},
      {"measurement": "TGI", "setting": "[2]", "value": 6.55, "unit": "µM"},
      {"measurement": "GI50", "setting": "[3]", "value": 842, "unit": "nM"},
      {"measurement": "TGI", "setting": "[3]", "value": 1760, "unit": "nM"},
      {"measurement": "GI50", "setting": "[4]", "value": 1070, "unit": "nM"},
      {"measurement": "TGI", "setting": "[4]", "value": 2450, "unit": "nM"},
      {"measurement": "GI50", "setting": "[5]", "value": 856, "unit": "nM"},
      {"measurement": "TGI", "setting": "[5]", "value": 1850, "unit": "nM"},
      {"measurement": "GI50", "setting": "[6]", "value": 1460, "unit": "nM"},
      {"measurement": "TGI", "setting": "[6]", "value": "> 50", "unit": "µM"},
      {"measurement": "GI50", "setting": "[7]", "value": 1590, "unit": "nM"},
      {"measurement": "TGI", "setting": "[7]", "value": "> 50", "unit": "µM"},
      {"measurement": "GI50", "setting": "[8]", "value": 6.71, "unit": "µM"},
      {"measurement": "TGI", "setting": "[8]", "value": 46, "unit": "µM"},
      {"measurement": "GI50", "setting": "[9]", "value": 1910, "unit": "nM"},
      {"measurement": "TGI", "setting": "[9]", "value": 15.3, "unit": "µM"},
      {"measurement": "GI50", "setting": "[10]", "value": 1720, "unit": "nM"},
      {"measurement": "TGI", "setting": "[10]", "value": 6.73, "unit": "µM"},
      {"measurement": "GI50", "setting": "[11]", "value": 1020, "unit": "nM"},
      {"measurement": "TGI", "setting": "[11]", "value": 2350, "unit": "nM"},
      {"measurement": "GI50", "setting": "[12]", "value": 1620, "unit": "nM"},
      {"measurement": "TGI", "setting": "[12]", "value": 9, "unit": "µM"},
      {"measurement": "GI50", "setting": "[13]", "value": 916, "unit": "nM"},
      {"measurement": "TGI", "setting": "[13]", "value": 1840, "unit": "nM"},
      {"measurement": "GI50", "setting": "[14]", "value": 1310, "unit": "nM"},
      {"measurement": "TGI", "setting": "[14]", "value": 3.49, "unit": "µM"},
      {"measurement": "GI50", "setting": "[15]", "value": 1640, "unit": "nM"},
      {"measurement": "TGI", "setting": "[15]", "value": 5.66, "unit": "µM"},
      {"measurement": "GI50", "setting": "[16]", "value": 2350, "unit": "nM"},
      {"measurement": "TGI", "setting": "[16]", "value": 18.6, "unit": "µM"},
      {"measurement": "GI50", "setting": "[17]", "value": 1030, "unit": "nM"},
      {"measurement": "TGI", "setting": "[17]", "value": 2830, "unit": "nM"},
      {"measurement": "GI50", "setting": "[18]", "value": 1080, "unit": "nM"},
      {"measurement": "TGI", "setting": "[18]", "value": 3.22, "unit": "µM"},
      {"measurement": "GI50", "setting": "[19]", "value": 4.5, "unit": "µM"},
      {"measurement": "TGI", "setting": "[19]", "value": "> 50", "unit": "µM"},
      {"measurement": "GI50", "setting": "[20]", "value": 5.7, "unit": "µM"},
      {"measurement": "TGI", "setting": "[20]", "value": 32.5, "unit": "µM"},
      {"measurement": "GI50", "setting": "[21]", "value": 939, "unit": "nM"},
      {"measurement": "TGI", "setting": "[21]", "value": 2680, "unit": "nM"},
      {"measurement": "GI50", "setting": "[22]", "value": 1380, "unit": "nM"},
      {"measurement": "TGI", "setting": "[22]", "value": 5.41, "unit": "µM"},
      {"measurement": "GI50", "setting": "[23]", "value": 1740, "unit": "nM"},
      {"measurement": "TGI", "setting": "[23]", "value": 11.7, "unit": "µM"},
      {"measurement": "GI50", "setting": "[24]", "value": 2070, "unit": "nM"},
      {"measurement": "TGI", "setting": "[24]", "value": 14.1, "unit": "µM"},
      {"measurement": "GI50", "setting": "[25]", "value": 1960, "unit": "nM"},
      {"measurement": "TGI", "setting": "[25]", "value": 6.99, "unit": "µM"},
      {"measurement": "GI50", "setting": "[26]", "value": 1290, "unit": "nM"},
      {"measurement": "TGI", "setting": "[26]", "value": 3.47, "unit": "µM"},
      {"measurement": "GI50", "setting": "[27]", "value": 1180, "unit": "nM"},
      {"measurement": "TGI", "setting": "[27]", "value": 9.22, "unit": "µM"},
      {"measurement": "GI50", "setting": "[28]", "value": 1520, "unit": "nM"},
      {"measurement": "TGI", "setting": "[28]", "value": 5.32, "unit": "µM"},
      {"measurement": "GI50", "setting": "[29]", "value": 1540, "unit": "nM"},
      {"measurement": "TGI", "setting": "[29]", "value": 18, "unit": "µM"}
    ]}
  ]
}
